From patent EP2012792B1, “USE OF A COMPOUND INDUCING AN INCREASE OF FREE SEROTONIN RATE IN THE BODY, FOR PREPARING A MEDICINE FOR TREATING SKELETAL MUSCLE DEGENERATION OF GENETIC ORIGIN” (Association Française contre les Myopathies, priority 2006, dated 2007)
Counter-ions that a name gives are not always drawn.

Tests used:
[1] = system: souche de nématode dépourvue de dystrophine; test: Muscle degeneration and paralysis test in dystrophin-deficient nematode strain (degenerative myopathy model); type: in vivo, Caenorhabditis elegans; conditions: 7 days of culture at 15°C; for Diminution de la dégénérescence en %: untreated = 0; for Pourcentage d'animaux paralysés à J7: untreated = 100
Protocol: Les composés ont été testés sur une souche de nématode dépourvue de dystrophine (Gieseler et al., Current Biology, 2000, vol. 10, p1092-1097) et (Ségalat, Neuromuscular Disorders, 2002, Suppl: S105-9). Cette souche est utilisée comme modèle de myopathie dégénérative. Dans cette souche, jusqu'à 30% des cellules musculaires servant à la locomotion (muscles longitudinaux) dégénèrent à l'état adulte (7 jours à 15°C), ce qui se traduit par une paralysie progressive des animaux.
Les composés sont administrés par mélange avec la gélose sur laquelle sont cultivés les animaux. Ils pénètrent par diffusion à travers la cuticule des animaux.
L'effet des composés sur la dégénérescence musculaire est évalué par 1) l'observation du phénotype des animaux (paralysie), et 2) par l'examen cytologique de la dégénérescence musculaire au moyen de marqueurs musculaires : rodamine-phalloidine et anticorps anti-myosine. Cet examen permet de compter le nombre de cellules musculaires en dégénérescence ou mortes (Gieseler et al., 2000, supra).

[2] = system: protéolyse du muscle de C. elegans; test: Muscle proteolysis model of C. elegans representative of cachexia (protocol of Zdinak et al.); type: in vivo; conditions: relative to control; concentration not given
Excerpt: c) Concernant l'action sur la cachexie, il a également pu être montré sur un modèle de protéolyse du muscle de C. elegans representatif de la cachexie, et en utilisant le protocole décrit par Zdinak et al., dans Transgene-coded chimeric proteins as reporters of intracellular proteolysis: starvation-induced catabolism of a lacZ fusion protein in muscle cells of Caenorhabditis elegans, J Cell Biochem. 1997 Oct 1;67(1):143-53 que la sérotonine et l'imipramine chlorhydrate réduisent fortement cette protéolyse (20% de la protéolyse du témoin dans les 2 cas).

[3] = system: souris mdx (génotype C57/BL6 mdx5cv); test: mdx mouse: histology, fibre size dispersion; type: in vivo; conditions: 40mg/jour/kg oral in food, treated from 2 to 6 weeks of age, tested at 6 weeks; versus untreated animals
Excerpt: (§1) J. Pathol. […] 2002 Aug; 444(5), 634-43. […] 2000 Sep; 11(9), 725-8.
(§2) Elles sont testées à 6 semaines.

[4] = system: souris mdx (génotype C57/BL6 mdx5cv); conditions: 40mg/jour/kg oral in food, treated from 2 to 6 weeks of age
Excerpt: Les tests effectués chez la souris sont de plusieurs types : histologiques, fonctionnels sur l'animal entier, et fonctionnels sur muscles disséqués. Les tests sont effectués sur la souris mdx (génotype C57/BL6 mdx5cv), modèle murin de myopathie dégénérative. Ces tests sont notamment détaillés dans les publications suivantes auxquelles on pourra se référer : • De Luca A, et al. Am. J. Pathol. 2005 Feb; 166(2), 477-89. • Divet A, et al. Pflugers Arch. 2002 Aug; 444(5), 634-43. Epub 2002 Jul 10. • Rafael JA, et al. Mamm Genome. 2000 Sep; 11(9), 725-8.
Les composés sont administrés oralement aux souris dans leur nourriture. Les souris sont traitées de l'âge de 2 semaines à 6 semaines. Elles sont testées à 6 semaines.

[5] = system: souris mdx (génotype C57/BL6 mdx5cv); test: mdx mouse: number of centronucleated fibres (test of Shavlakadze et al.); type: in vivo; conditions: p<0,1%
Protocol: as §1, §2
(§3) Il a également été démontré que la Fluoxetine chlorhydrate (11 mg/kg/jour), réduit le nombre de fibres centronucléées de 20% environ (p<0,1%).

[6] = system: souris mdx (génotype C57/BL6 mdx5cv); test: mdx mouse: diaphragm necrosis (test of Raymackers et al.); type: in vivo; conditions: 15 mg/kg/jour oral in food; p<5%
Protocol: as §1, §2, §3

[7] = 0,1 mg/ml (0,3 mM) in culture agar
[8] = 0,05 mg/ml (0,15 mM) in culture agar
[9] = 0,1 mg/ml (0,2 mM) in culture agar
[10] = 4 mg/ml (10 mM) in culture agar

Question: `CNCCCN1c2ccccc2CCc2ccccc21` [Desipramine chlorhydrate, désipramine] was tested. Which “Diminution de la dégénérescence en %” value [1, 7] did it give?
Answer: Its value is 58%.

Question: And the “Pourcentage d'animaux paralysés à J7” value [1, 7]?
Answer: The value was 58%.

Question: Which “Diminution de la dégénérescence en %” value [1, 7] does the source give for `CN(C)CCCN1c2ccccc2CCc2ccccc21` [Imipramine chlorhydrate, imipramine] here?
Answer: Its value is 37%.

Question: And the “Pourcentage d'animaux paralysés à J7” value [1, 7]?
Answer: The value was 65%.

Question: What about the protéolyse [2] of the same compound?
Answer: The protéolyse was 20 % de la protéolyse du témoin.

Question: And the “Réduction de la dispersion de taille des fibres (marqueur de dégénérescence)” value [3]?
Answer: The value was 26%.

Question: What about the “Augmentation de la tension développée par le muscle EDL sur animaux vivants” value ([4]; tested at 6 weeks) of the same compound?
Answer: Its value is 20%.

Question: What about the “Augmentation du score avec le test d'agrippement” value ([4]; tested at 6 weeks) of the same compound?
Answer: Its value is 48%.

Question: And the “Augmentation de la tension maximale développée par le muscle isolé” value ([4]; triton-skinned fibres)?
Answer: Its value is 50%.

Question: `CN(C)CCC=C1c2ccccc2CCc2ccccc21` [Amytriptyline chlorhydrate, amitriptyline] was tested. Which “Diminution de la dégénérescence en %” value [1, 7] did it give?
Answer: The value was 61%.

Question: What about the “Pourcentage d'animaux paralysés à J7” value [1, 7] of the same compound?
Answer: Its value is 52%.

Question: Which “Diminution de la dégénérescence en %” value [1, 8] does the source give for `CNCCC(Oc1ccc(C(F)(F)F)cc1)c1ccccc1` (stereo not shown) [Fluoxetine chlorhydrate, fluoxétine] here?
Answer: The value was 51%.

Question: And the “Pourcentage d'animaux paralysés à J7” value [1, 8]?
Answer: Its value is 60%.

Question: What about the “réduction du nombre de fibres centronucléées” value ([5]; 11 mg/kg/jour oral in food) of the same compound?
Answer: Its value is about 20%.

Question: Which “Diminution de la dégénérescence en %” value [1, 9] does the source give for `CC(CN(C)C)CN1c2ccccc2CCc2ccccc21` (stereo not shown) [Trimipramine maleate, trimipramine] here?
Answer: Its value is 53%.

Question: And the “Pourcentage d'animaux paralysés à J7” value [1, 9]?
Answer: The value was 60%.

Question: What about the nécrose du diaphragme [6] of the same compound?
Answer: Its nécrose du diaphragme is “réduit la nécrose du diaphragme”.

Question: What about the “nombre de fibres centronucléées” value ([5]; 15 mg/kg/jour oral in food, result in words) of the same compound?
Answer: Its value is “réduit”.

Question: With `NCCc1c[nH]c2ccc(O)cc12` [Sérotonine, 5-hydrotryptamine] as the compound, how does the “Diminution de la dégénérescence en %” value [1, 10] read?
Answer: The value was 73%.

Question: And the “Pourcentage d'animaux paralysés à J7” value [1, 10]?
Answer: Its value is 41%.

Question: And the dégénérescence musculaire ([1]; result in words)?
Answer: Its dégénérescence musculaire is “diminue également la dégénérescence musculaire”.

Question: What about the protéolyse [2] of the same compound?
Answer: Its protéolyse is 20 % de la protéolyse du témoin.
